Reference: patent US9113629B2, “4-amino-6-(4-substituted-phenyl)-picolinates and 6-amino-2-(4-substituted-phenyl)-pyrimidine-4-carboxylates and their use as herbicides” (DOW AGROSCIENCES LLC, priority 2013, dated 2015)

Key:
Assay in all cases: Post-emergent Test III, herbicidal activity in wheat and barley
Type in all cases: in vivo
[1] = test system: HORSS: barley, including spring and winter (Hordeum vulgare); conditions: 21 days after application; for pest or weed control at 35 g/ha / pest or weed control at 70 g/ha: Hordeum vulgare, post-emergence, 504 h, read-out: Visual Gorowth Reduction (%) 21 days After Application HORSS; for pest or weed control at 35 g/ha: 35 g ai/ha; for pest or weed control at 70 g/ha: 70 g ai/ha; for GR20 HORSS: probit analysis, dose for 20 percent growth reduction (crop)
Method in brief: (§1)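 GR20, GR50, GR80 and GR90 come from probit analysis of visual injury scores (0 = none, 100 = complete kill) taken 21 d after treatment. Foliar application was by track sprayer delivering 187 L/ha at five rates, from high down to 1/16×, onto greenhouse plants at the 2–3 leaf stage, with solvent-blank controls.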

[2] = test system: KCHSC: kochia (Kochia scoparia); conditions: 21 days after application; for pest or weed control at 35 g/ha / pest or weed control at 70 g/ha: Bassia scoparia, post-emergence, 504 h, read-out: Visual Gorowth Reduction (%) 21 days After Application KCHSC; for pest or weed control at 35 g/ha: 35 g ai/ha; for pest or weed control at 70 g/ha: 70 g ai/ha; for GR50 KCHSC / GR80 KCHSC: probit analysis; for GR50 KCHSC: dose for 50 percent growth reduction; for GR80 KCHSC: dose for 80 percent growth reduction
Method in brief: as §1

[3] = test system: MATSS: scented mayweed (Matricaria chamomilla), pineappleweed (Matricaria matricarioides); conditions: 21 days after application; for pest or weed control at 35 g/ha / pest or weed control at 70 g/ha: Matricaria chamomilla, post-emergence, 504 h, read-out: Visual Gorowth Reduction (%) 21 days After Application MATSS; for pest or weed control at 35 g/ha: 35 g ai/ha; for pest or weed control at 70 g/ha: 70 g ai/ha; for GR50 MATSS / GR80 MATSS: probit analysis; for GR50 MATSS: dose for 50 percent growth reduction; for GR80 MATSS: dose for 80 percent growth reduction
Method in brief: as §1

[4] = test system: SASKR: Russian thistle (Salsola iberica); conditions: 21 days after application; for pest or weed control at 35 g/ha / pest or weed control at 70 g/ha: Salsola tragus, post-emergence, 504 h, read-out: Visual Gorowth Reduction (%) 21 days After Application SASKR; for pest or weed control at 35 g/ha: 35 g ai/ha; for pest or weed control at 70 g/ha: 70 g ai/ha; for GR50 SASKR / GR80 SASKR: probit analysis; for GR50 SASKR: dose for 50 percent growth reduction; for GR80 SASKR: dose for 80 percent growth reduction
Method in brief: as §1

[5] = test system: TRZSS: wheat, including spring and winter (Triticum aestivum); conditions: 21 days after application; for pest or weed control at 35 g/ha / pest or weed control at 70 g/ha: Triticum aestivum, post-emergence, 504 h, read-out: Visual Gorowth Reduction (%) 21 days After Application TRZSS; for pest or weed control at 35 g/ha: 35 g ai/ha; for pest or weed control at 70 g/ha: 70 g ai/ha; for GR20 TRZSS: probit analysis, dose for 20 percent growth reduction (crop)
Method in brief: as §1

[6] = test system: VERPE: bird's-eye speedwell (veronica persica); conditions: 21 days after application; for pest or weed control at 35 g/ha / pest or weed control at 70 g/ha: Veronica persica, post-emergence, 504 h, read-out: Visual Gorowth Reduction (%) 21 days After Application VERPE; for pest or weed control at 35 g/ha: 35 g ai/ha; for pest or weed control at 70 g/ha: 70 g ai/ha; for GR50 VERPE / GR80 VERPE: probit analysis; for GR50 VERPE: dose for 50 percent growth reduction; for GR80 VERPE: dose for 80 percent growth reduction
Method in brief: as §1

[7] = test system: VIOSS: wild pansy (Viola tricolor), field violet (Viola arvensis); conditions: 21 days after application; for pest or weed control at 35 g/ha / pest or weed control at 70 g/ha: Viola tricolor, post-emergence, 504 h, read-out: Visual Gorowth Reduction (%) 21 days After Application VIOSS; for pest or weed control at 35 g/ha: 35 g ai/ha; for pest or weed control at 70 g/ha: 70 g ai/ha; for GR50 VIOSS / GR80 VIOSS: probit analysis; for GR50 VIOSS: dose for 50 percent growth reduction; for GR80 VIOSS: dose for 80 percent growth reduction
Method in brief: as §1

Row | SMILES | pest or weed control at 35 g/ha [1] | pest or weed control at 70 g/ha [1] | GR20 HORSS [1] | pest or weed control at 35 g/ha [2] | pest or weed control at 70 g/ha [2] | GR50 KCHSC [2] | GR80 KCHSC [2] | pest or weed control at 35 g/ha [3] | pest or weed control at 70 g/ha [3] | GR50 MATSS [3] | GR80 MATSS [3] | pest or weed control at 35 g/ha [4] | pest or weed control at 70 g/ha [4] | GR50 SASKR [4] | GR80 SASKR [4] | pest or weed control at 35 g/ha [5] | pest or weed control at 70 g/ha [5] | GR20 TRZSS [5] | pest or weed control at 35 g/ha [6] | pest or weed control at 70 g/ha [6] | further results
1 | COc1c(N)nc(-c2ccc(I)cc2F)nc1C(=O)O [Compound 72] | 45 to 59% | 60 to 74% | 5 g ai/ha | 60 to 74% | 60 to 74% | 27 g ai/ha | 105 g ai/ha | 0 to 29% | 30 to 44% | 126 g ai/ha | >140 g ai/ha | 30 to 44% | 60 to 74% | 48 g ai/ha | 106 g ai/ha | 75 to 84% | 85 to 94% | 1 g ai/ha | 85 to 94% | 95 to 100% | GR50 VERPE [6]: 1 g ai/ha; GR80 VERPE [6]: 8 g ai/ha; pest or weed control at 35 g/ha [7]: 30 to 44%; pest or weed control at 70 g/ha [7]: 45 to 59%; GR50 VIOSS [7]: 67 g ai/ha; GR80 VIOSS [7]: >140 g ai/ha
2 | COc1c(N)nc(-c2ccc(I)c(F)c2F)nc1C(=O)O [Compound 89] | 60 to 74% | 60 to 74% | 3 g ai/ha | 85 to 94% | 85 to 94% | 12 g ai/ha | 25 g ai/ha | 75 to 84% | 85 to 94% | 14 g ai/ha | 36 g ai/ha | 85 to 94% | 85 to 94% | 9 g ai/ha | 21 g ai/ha | 75 to 84% | 85 to 94% | 1 g ai/ha | 95 to 100% | 95 to 100% | GR50 VERPE [6]: 3 g ai/ha; GR80 VERPE [6]: 6 g ai/ha; pest or weed control at 35 g/ha [7]: 95 to 100%; pest or weed control at 70 g/ha [7]: 95 to 100%; GR50 VIOSS [7]: 11 g ai/ha; GR80 VIOSS [7]: 19 g ai/ha
3 | COC(=O)c1nc(-c2ccc(I)c(F)c2F)c(F)c(N)c1Cl [Compound 99] | 85 to 94% | 95 to 100% | 1 g ai/ha | 75 to 84% | 85 to 94% | 9 g ai/ha | 27 g ai/ha | 30 to 44% | 45 to 59% | 63 g ai/ha | >140 g ai/ha | 75 to 84% | 75 to 84% | 10 g ai/ha | 48 g ai/ha | 85 to 94% | 85 to 94% | 1 g ai/ha | 95 to 100% | 95 to 100% | GR50 VERPE [6]: 8 g ai/ha; GR80 VERPE [6]: 17 g ai/ha; pest or weed control at 35 g/ha [7]: 95 to 100%; pest or weed control at 70 g/ha [7]: 95 to 100%; GR50 VIOSS [7]: 9 g ai/ha; GR80 VIOSS [7]: 19 g ai/ha
4 | C#Cc1ccc(-c2nc(C(=O)O)c(Cl)c(N)c2F)c(F)c1 [Compound 108] | 30 to 44% | 45 to 59% | 16 g ai/ha | 0 to 29% | 0 to 29% | >140 g ai/ha | >140 g ai/ha | 30 to 44% | 60 to 74% | 58 g ai/ha | >140 g ai/ha | 0 to 29% | 30 to 44% | 136 g ai/ha | >140 g ai/ha | 75 to 84% | 75 to 84% | 6 g ai/ha | 60 to 74% | 75 to 84% | GR50 VERPE [6]: 22 g ai/ha; GR80 VERPE [6]: 67 g ai/ha; pest or weed control at 35 g/ha [7]: 30 to 44%; pest or weed control at 70 g/ha [7]: 30 to 44%; GR50 VIOSS [7]: 85 g ai/ha; GR80 VIOSS [7]: >140 g ai/ha
